Data as given in patent US20110039721A1, “METHOD FOR PREDICTION ABOUT CARCINOGENICITY OF SUBSTANCE IN RODENT” (Chemicals Evaluation and Research Institute, priority 2007, published 2011).
Where two headings read alike, the source gives them in different places.

Tests used:
[1] = cited from earlier work
rodent = conditions: cited from earlier work
liver = conditions: cited from earlier work
[2] = test system: mRNA expressed from the genes (A) to (D) in rat liver; experiment: Behavior of genes (mRNA expression level, oligo-DNA microarray) in rat liver after 28-day oral administration; assay type: in vivo
How it was run: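 Rat liver RNA after 28 days of daily gavage dosing (male F344, 5 weeks old, four per group). A change reaching 1.5-fold, or 1/1.5, against solvent control scores as significant; opposite direction versus another carcinogen scores as not significant.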

[3] = gene group (A), Unigene No. Rn.167075
[4] = gene group (C), Unigene No. Rn.120914

**Q.** With O=C([O-])c1ccccc1.[Na+] [TS084, Sodium benzoate] as the molecule, how does the “Mutagenicity by Ames test” value ([1]; classification of the substance (M+/M−)) read?
**A.** M−

**Q.** What about the Carcinogenicity (rodent; classification of the substance (C+/C−)) of the same molecule?
**A.** C−

**Q.** What about the Liver carcinogenicity (liver; classification of the substance (Cr+/Cr−)) of the same molecule?
**A.** Cr−

**Q.** And the “Behavior of gene caused by administration of chemical substance, Gene No. 4846” value ([2]; gene group (A), Unigene No. Rn.144554)?
**A.** −

**Q.** What about the “Behavior of gene caused by administration of chemical substance, Gene No. 2026” value [2, 3] of the same molecule?
**A.** −

**Q.** What about the “Behavior of gene caused by administration of chemical substance, Gene No. 4218” value [2, 3] of the same molecule?
**A.** −

**Q.** And the “Behavior of gene caused by administration of chemical substance, Gene No. 6182” value ([2]; gene group (A), Unigene No. Rn.5834)?
**A.** +

**Q.** What about the “Behavior of gene caused by administration of chemical substance, Gene No. 5600” value ([2]; gene group (A), Unigene No. Rn.9836) of the same molecule?
**A.** −

**Q.** What about the “Behavior of gene caused by administration of chemical substance, Gene No. 1494” value ([2]; gene group (B), Unigene No. Rn.1430) of the same molecule?
**A.** +

**Q.** And the “Behavior of gene caused by administration of chemical substance, Gene No. 2045” value ([2]; gene group (B), Unigene No. Rn.19329)?
**A.** −

**Q.** And the “Behavior of gene caused by administration of chemical substance, Gene No. 2203” value ([2]; gene group (B), Unigene No. Rn.21240)?
**A.** −

**Q.** And the “Behavior of gene caused by administration of chemical substance, Gene No. 533” value ([2]; gene group (C), Unigene No. Rn.106184)?
**A.** +

**Q.** What about the “Behavior of gene caused by administration of chemical substance, Gene No. 725” value ([2]; gene group (C), Unigene No. Rn.108075) of the same molecule?
**A.** −

**Q.** What about the “Behavior of gene caused by administration of chemical substance, Gene No. 1163” value ([2]; gene group (C), Unigene No. Rn.11766) of the same molecule?
**A.** −

**Q.** What about the “Behavior of gene caused by administration of chemical substance, Gene No. 4973” value ([2]; gene group (C), Unigene No. Rn.118529) of the same molecule?
**A.** +

**Q.** And the “Behavior of gene caused by administration of chemical substance, Gene No. 4095” value ([2]; gene group (C), Unigene No. Rn.119024)?
**A.** −

**Q.** And the “Behavior of gene caused by administration of chemical substance, Gene No. 1334” value [2, 4]?
**A.** −

**Q.** What about the “Behavior of gene caused by administration of chemical substance, Gene No. 6620” value [2, 4] of the same molecule?
**A.** −

**Q.** And the “Behavior of gene caused by administration of chemical substance, Gene No. 6303” value ([2]; gene group (C), Unigene No. Rn.123063)?
**A.** −

**Q.** And the “Behavior of gene caused by administration of chemical substance, Gene No. 5878” value ([2]; gene group (C), Unigene No. Rn.143213)?
**A.** −

**Q.** And the “Behavior of gene caused by administration of chemical substance, Gene No. 1131” value ([2]; gene group (C), Unigene No. Rn.144946)?
**A.** −

**Q.** What about the “Behavior of gene caused by administration of chemical substance, Gene No. 1562” value ([2]; gene group (C), Unigene No. Rn.14744) of the same molecule?
**A.** −

**Q.** And the “Behavior of gene caused by administration of chemical substance, Gene No. 1741” value ([2]; gene group (C), Unigene No. Rn.1647)?
**A.** −

**Q.** And the “Behavior of gene caused by administration of chemical substance, Gene No. 893” value ([2]; gene group (C), Unigene No. Rn.164817)?
**A.** −

**Q.** What about the “Behavior of gene caused by administration of chemical substance, Gene No. 6026” value ([2]; gene group (C), Unigene No. Rn.167685) of the same molecule?
**A.** −

**Q.** What about the “Behavior of gene caused by administration of chemical substance, Gene No. 154” value ([2]; gene group (C), Unigene No. Rn.185941) of the same molecule?
**A.** −

**Q.** What about the “Behavior of gene caused by administration of chemical substance, Gene No. 1993” value ([2]; gene group (C), Unigene No. Rn.18728) of the same molecule?
**A.** −

**Q.** And the “Behavior of gene caused by administration of chemical substance, Gene No. 813” value ([2]; gene group (C), Unigene No. Rn.201760)?
**A.** −

**Q.** What about the “Behavior of gene caused by administration of chemical substance, Gene No. 2494” value ([2]; gene group (C), Unigene No. Rn.23969) of the same molecule?
**A.** −

**Q.** What about the “Behavior of gene caused by administration of chemical substance, Gene No. 2546” value ([2]; gene group (C), Unigene No. Rn.24561) of the same molecule?
**A.** −

**Q.** And the “Behavior of gene caused by administration of chemical substance, Gene No. 3776” value ([2]; gene group (C), Unigene No. Rn.43232)?
**A.** −

**Q.** What about the “Behavior of gene caused by administration of chemical substance, Gene No. 3929” value ([2]; gene group (C), Unigene No. Rn.4620) of the same molecule?
**A.** −

**Q.** What about the “Behavior of gene caused by administration of chemical substance, Gene No. 1119” value ([2]; gene group (C), Unigene No. Rn.9757) of the same molecule?
**A.** −

**Q.** What about the “Behavior of gene caused by administration of chemical substance, Gene No. 6742” value ([2]; gene group (C), Unigene No. Rn.9779) of the same molecule?
**A.** +

**Q.** What about the “Behavior of gene caused by administration of chemical substance, Gene No. 5634” value ([2]; gene group (C), Unigene No. Rn.9862) of the same molecule?
**A.** −

**Q.** What about the “Behavior of gene caused by administration of chemical substance, Gene No. 5726” value ([2]; gene group (D), Unigene No. Rn.9939) of the same molecule?
**A.** −

**Q.** For C=CCc1ccc(OC)c(OC)c1 [TS086, Methyleugenol], which “Mutagenicity by Ames test” value ([1]; classification M+/M−) is on record?
**A.** M−

**Q.** And the Carcinogenicity (rodent; classification C+/C−)?
**A.** C+

**Q.** And the Liver carcinogenicity (liver; classification Cr+/Cr−)?
**A.** Cr+

**Q.** And the “Behavior of gene caused by administration of chemical substance” value ([2]; Gene No. 154, Rn.185941, group (C))?
**A.** −

**Q.** And the “Behavior of gene caused by administration of chemical substance” value ([2]; Gene No. 533, Rn.106184, group (C))?
**A.** +

**Q.** What about the “Behavior of gene caused by administration of chemical substance” value ([2]; Gene No. 725, Rn.108075, group (C)) of the same molecule?
**A.** −

**Q.** What about the “Behavior of gene caused by administration of chemical substance” value ([2]; Gene No. 813, Rn.201760, group (C)) of the same molecule?
**A.** −

**Q.** And the “Behavior of gene caused by administration of chemical substance” value ([2]; Gene No. 893, Rn.164817, group (C))?
**A.** −

**Q.** What about the “Behavior of gene caused by administration of chemical substance” value ([2]; Gene No. 1119, Rn.9757, group (C)) of the same molecule?
**A.** −

**Q.** What about the “Behavior of gene caused by administration of chemical substance” value ([2]; Gene No. 1131, Rn.144946, group (C)) of the same molecule?
**A.** −

**Q.** What about the “Behavior of gene caused by administration of chemical substance” value ([2]; Gene No. 1163, Rn.11766, group (C)) of the same molecule?
**A.** −

**Q.** What about the “Behavior of gene caused by administration of chemical substance” value ([2]; Gene No. 1334, Rn.120914, group (C)) of the same molecule?
**A.** −

**Q.** And the “Behavior of gene caused by administration of chemical substance” value ([2]; Gene No. 1494, Rn.1430, group (B))?
**A.** −

**Q.** What about the “Behavior of gene caused by administration of chemical substance” value ([2]; Gene No. 1562, Rn.14744, group (C)) of the same molecule?
**A.** −

**Q.** What about the “Behavior of gene caused by administration of chemical substance” value ([2]; Gene No. 1741, Rn.1647, group (C)) of the same molecule?
**A.** −

**Q.** And the “Behavior of gene caused by administration of chemical substance” value ([2]; Gene No. 1993, Rn.18728, group (C))?
**A.** −

**Q.** What about the “Behavior of gene caused by administration of chemical substance” value ([2]; Gene No. 2026, Rn.167075, group (A)) of the same molecule?
**A.** −

**Q.** And the “Behavior of gene caused by administration of chemical substance” value ([2]; Gene No. 2045, Rn.19329, group (B))?
**A.** −

**Q.** And the “Behavior of gene caused by administration of chemical substance” value ([2]; Gene No. 2203, Rn.21240, group (B))?
**A.** −

**Q.** What about the “Behavior of gene caused by administration of chemical substance” value ([2]; Gene No. 2494, Rn.23969, group (C)) of the same molecule?
**A.** −

**Q.** And the “Behavior of gene caused by administration of chemical substance” value ([2]; Gene No. 2546, Rn.24561, group (C))?
**A.** −

**Q.** And the “Behavior of gene caused by administration of chemical substance” value ([2]; Gene No. 3776, Rn.43232, group (C))?
**A.** −

**Q.** What about the “Behavior of gene caused by administration of chemical substance” value ([2]; Gene No. 3929, Rn.4620, group (C)) of the same molecule?
**A.** −

**Q.** What about the “Behavior of gene caused by administration of chemical substance” value ([2]; Gene No. 4095, Rn.119024, group (C)) of the same molecule?
**A.** −

**Q.** And the “Behavior of gene caused by administration of chemical substance” value ([2]; Gene No. 4218, Rn.167075, group (A))?
**A.** −

**Q.** And the “Behavior of gene caused by administration of chemical substance” value ([2]; Gene No. 4846, Rn.144554, group (A))?
**A.** +

**Q.** And the “Behavior of gene caused by administration of chemical substance” value ([2]; Gene No. 4973, Rn.118529, group (C))?
**A.** −

**Q.** What about the “Behavior of gene caused by administration of chemical substance” value ([2]; Gene No. 5600, Rn.9836, group (A)) of the same molecule?
**A.** +

**Q.** What about the “Behavior of gene caused by administration of chemical substance” value ([2]; Gene No. 5634, Rn.9862, group (C)) of the same molecule?
**A.** −

**Q.** What about the “Behavior of gene caused by administration of chemical substance” value ([2]; Gene No. 5726, Rn.9939, group (D)) of the same molecule?
**A.** −

**Q.** And the “Behavior of gene caused by administration of chemical substance” value ([2]; Gene No. 5878, Rn.143213, group (C))?
**A.** −

**Q.** What about the “Behavior of gene caused by administration of chemical substance” value ([2]; Gene No. 6026, Rn.167685, group (C)) of the same molecule?
**A.** −

**Q.** And the “Behavior of gene caused by administration of chemical substance” value ([2]; Gene No. 6182, Rn.5834, group (A))?
**A.** +

**Q.** And the “Behavior of gene caused by administration of chemical substance” value ([2]; Gene No. 6303, Rn.123063, group (C))?
**A.** −

**Q.** And the “Behavior of gene caused by administration of chemical substance” value ([2]; Gene No. 6620, Rn.120914, group (C))?
**A.** −

**Q.** And the “Behavior of gene caused by administration of chemical substance” value ([2]; Gene No. 6742, Rn.9779, group (C))?
**A.** −
